These results are taken from patent publication US20130018023A1, “COMPOSITIONS FOR TOPICAL ADMINISTRATION” (SOL-GEL TECHNOLOGIES LTD., priority 2010, published 2013).

In test [1] the test system is C. albicans (yeast). Nature of the test: MIC determination, macrodilution method. It is filed as cell-based, Candida albicans (ATCC 10231). The source says:
(§1) Methicillin-resistant Staphylococcus aureus (ATCC 33592) Coagualse Negative Staphylococcus epidermidis (Clinical Isolate) Vancomycin-Restistant Enterococcus faecali (ATCC 115992) Escherischia coli (ATCC 25922) Candida albicans (ATCC 10231)
(§2) Muller Hinton Agar (MHA) was used in this study for all bacteria: BD Cat #211438, Lot number 7155220. Yeast Dextrose Broth (Y/D B) was used to test C. albicans Yeast Dextrose Broth contains 10 g/L of yeast extract and 10 g/L of dextrose. Yeast Extract Cat #BD 210933, Lot number 8074851 (Expiration 2010-01-31). Dextrose Cat # BD215530 (Lot Number 6163169). Yeast Dextrose Agar (Y/D A) was used to test C. albicans Yeast Dextrose Agar contains 10 g/L of yeast extract and 10 g/L of dextrose and 17 g/L Agar. Agar Cat # BD 214010 (Lot Number 214010).
(§3) 1. The test organism, (bacteria or yeast) was obtained from frozen cultures. 2. Two days prior to the experiment, a portion of test bacterium from frozen culture collection was streaked and cultured on a non-selective agar plate (e.g. TSA). Plates were then incubated overnight at 37° C.±1° C. and the culture was examined for purity prior to use. […] 3. The day prior to the experiment, a portion of test organism was inoculated from the above-mentioned plate into MHB and vortexed. Incubate at 37° C.±1° C. for approximately eighteen hours. 4. For Candida albicans (ATCC 10231): The day prior to the experiment a portion of test organism was inoculated from the above-mentioned plate into Yeast/Dextrose Broth and vortexted. Bacterial MIC determination was conducted according to Kirby-Bauer macrodilution method. The bacterial/yeast density was adjusted to approximately 10^7 CFU/m; (Approx OD625 0.1±0.05). Stock solutions of each test article or combination were made by adding each test article to MHB to give an MHB/test article mixture of the following concentrations: Benzoyl Peroxide=6% in MHB and Mupiocin=256 μg/mL in MHB.
For bacterial: Mupirocin=256 μg/mL & BP at 0.0469% in MHB For yeast: Mupirocin=256 μg/mL & BP at 0.0115% in MHB […]

Test [2] deals with Staph epidermidis. Nature of the test: MIC determination, macrodilution method. In kind it is cell-based.
From the text: as §1
(§4) Muller Hinton Broth (MHB) was used in this study for all bacteria: BD Cat #211443, Lot numbers 9097650.
as §3, with “Stock solutions of each test article or combination were made by adding each test article to MHB to give an MHB/test article mixture of the following concentrations: Benzoyl Peroxide=6% in MHB and Mupiocin=256 μg/mL in MHB.” left out

Test [3] relates to MRSA. Put plainly: MIC determination, macrodilution method. It is filed as cell-based, Methicillin-resistant Staphylococcus aureus (ATCC 33592).
From the text: as §1, §4
as §3, with “Stock solutions of each test article or combination were made by adding each test article to MHB to give an MHB/test article mixture of the following concentrations: Benzoyl Peroxide=6% in MHB and Mupiocin=256 μg/mL in MHB.” left out

Test [4] concerns VRE. Put plainly: MIC determination, macrodilution method. It is filed as cell-based, Vancomycin-Restistant Enterococcus faecali (ATCC 115992).
From the text: as §1, §4
as §3, with “Stock solutions of each test article or combination were made by adding each test article to MHB to give an MHB/test article mixture of the following concentrations: Benzoyl Peroxide=6% in MHB and Mupiocin=256 μg/mL in MHB.” left out

Test [5] relates to E. Coli. Put plainly: MIC determination, macrodilution method. Particulars: Escherichia coli, MHB, approx. 24 h at 37° C., value as mupirocin concentration, combination starts at BP 0.0469%. It is filed as cell-based, Escherischia coli (ATCC 25922).
From the text: as §1, §4
as §3, with “Stock solutions of each test article or combination were made by adding each test article to MHB to give an MHB/test article mixture of the following concentrations: Benzoyl Peroxide=6% in MHB and Mupiocin=256 μg/mL in MHB.” left out

Test [6] concerns C. albicans (yeast). Put plainly: MBC & MFC determination, sub-culturing from MIC tubes. In kind it is cell-based, Candida albicans (ATCC 10231). Particulars: Candida albicans, value as mupirocin concentration.
From the text: as §1, §2
(§5) 1. The test organism, (bacteria or yeast) was obtained from frozen cultures. 2. Two days prior to the experiment, a portion of test bacterium from frozen culture collection was streaked and cultured on a non-selective agar plate (e.g. TSA). Plates were then incubated overnight at 37° C.±1° C. and the culture was examined for purity prior to use. […] 3. The day prior to the experiment, a portion of test organism was inoculated from the above-mentioned plate into MHB and vortexed. Incubate at 37° C.±1° C. for approximately eighteen hours. 4. […]

For test [7], the system named is Staph epidermidis. Put plainly: MBC determination, sub-culturing from MIC tubes. It is filed as cell-based. Particulars: Staphylococcus epidermidis, mupirocin alone, read-out: Mupirocin MBC & MFC.
From the text: as §1, §2, §5

The subject of test [8] is MRSA. Nature of the test: MBC determination, sub-culturing from MIC tubes. In kind it is cell-based, Methicillin-resistant Staphylococcus aureus (ATCC 33592). Particulars: Staphylococcus aureus, mupirocin alone, read-out: Mupirocin MBC & MFC.
From the text: as §1, §2, §5

Test [9] has as its system VRE. Nature of the test: MBC determination, sub-culturing from MIC tubes. In kind it is cell-based, Vancomycin-Restistant Enterococcus faecali (ATCC 115992). The settings on record: Enterococcus, value as mupirocin concentration, read-out: Mupirocin MBC & MFC.
From the text: as §1, §2, §5

Test [10] deals with E. Coli. Nature of the test: MBC determination, sub-culturing from MIC tubes. In kind it is cell-based, Escherischia coli (ATCC 25922). The settings on record: Escherichia coli, value as mupirocin concentration, read-out: Mupirocin MBC & MFC.
From the text: as §1, §2, §5

For the next test, the system named is Staph organisms. Put plainly: Cidal activity (MBC) against Staph organisms. In kind it is cell-based, Staphylococcus. The procedure: Bacterial MBC determination was conducted according to Kirby-Bauer macro-dilution method. […] The tubes were incubated for approximately 24 h at 37° C.±1° C. and then scored for their MBC.

`O=C(OOC(=O)c1ccccc1)c1ccccc1` [BPO, Benzoyl peroxide]: the “BPO in DMSO MIC” value with C. albicans (yeast) [1] (C. albicans, BPO alone dissolved in DMSO) is 0.046% (0.19%); with Staph epidermidis [2] (BPO alone dissolved in DMSO) it was 0.1875% (0.78%); with MRSA [3] (BPO alone dissolved in DMSO), 0.1875% (0.78%); with VRE [4] (BPO alone dissolved in DMSO), 0.1875% (0.78%).
For the compound `C/C(=C\C(=O)OCCCCCCCCC(=O)O)C[C@@H]1OC[C@H](C[C@@H]2O[C@H]2[C@@H](C)[C@H](C)O)[C@@H](O)[C@H]1O` [Mupirocin], the minimal inhibitory concentration (MIC) – broadly, the lowest concentration that inhibits growth of the organism – was over 256 µg/mL in the test on C. albicans (yeast) [1] (Candida albicans, C. albicans, approx. 24 h at 37° C., value as mupirocin concentration, combination starts at BP 0.0115%); 1 µg/mL with Staph epidermidis [2] (Staphylococcus epidermidis, MHB, approx. 24 h at 37° C., value as mupirocin concentration, combination starts at BP 0.0469%); 1 µg/mL with MRSA [3] (Staphylococcus aureus, MHB, approx. 24 h at 37° C., value as mupirocin concentration, combination starts at BP 0.0469%); 64 µg/mL with VRE [4] (Enterococcus, MHB, approx. 24 h at 37° C., value as mupirocin concentration, combination starts at BP 0.0469%); 64 µg/mL in the test with E. Coli [5]. Further, the “Efficacy against the yeast C. albicans (in words)” value in the test with C. albicans (yeast) [1] (at the concentrations tested) is “ineffective”. The MBC is over 256 µg/mL in the test on C. albicans (yeast) [6]; 32 µg/mL with Staph epidermidis [7]; 32 µg/mL in the test on MRSA [8]; over 256 µg/mL in the test on VRE [9]; over 256 µg/mL with E. Coli [10]. The “Cidal activity against Staph organisms (in words)” value in the test with Staph organisms is recorded as “Cidal activity”.
